≈ marks a conversion by molar mass, not a printed value. Read-outs that look alike come from different tables or passages of the source. Residues, ends and D or L forms follow the SMILES beside them. *: point of attachment. NHPhenethyl = c1ccc(CCN*)cc1
Columns and labels:
[1] = test system: Staphylococcus aureus, strain ATCC 25923; details: for MIC S. aureus: Staphylococcus aureus ATCC 25923
[2] = test system: Haemophilus influenzae - ATCC 47247; assay: MIC microbroth dilution (CLSI), extra control strain; design: unit not given beside the values; details: H. influenzae ATCC 47247; HTM
[3] = test system: Salmonella sp - multi-drug resistant clinical isolate; assay: MIC microbroth dilution (CLSI); format: cell-based
Description: (§1) Cation-adjusted Mueller-Hinton broth (Oxoid Ltd., Basingstoke, UK and Trek Diagnostic Systems Ltd., East Grinstead, UK) (supplemented with 5% laked horse blood for Streptococcus spp., Corynebacterium jeikeium and Listeria monocytogenes) was used for aerobic bacteria, with an initial inoculum of approximately 10^5 colony-forming units (CFU)/mL.

[4] = test system: Salmonella sp - antibiotic-susceptible clinical isolate; assay: MIC microbroth dilution (CLSI); format: cell-based
Description: as §1

[5] = test system: Shigella sp - antibiotic-susceptible clinical isolate; assay: MIC microbroth dilution (CLSI); format: cell-based
Description: as §1

[6] = test system: Streptococcus pyogenes - Macrolide (M-type) resistance clinical isolate; format: cell-based; details: S. pyogenes Macrolide (M-type) resistance
Description: as §1

[7] = test system: Moraxella catarrhalis - reduced fluoroquinolone susceptibility clinical isolate; format: cell-based; details: M. catarrhalis reduced fluoroquinolone susceptibility
Description: as §1

[8] = test system: Moraxella catarrhalis - β -lactamase positive clinical isolate; format: cell-based; details: M. catarrhalis β-lactamase positive
Description: as §1

[9] = test system: Bacteroides fragilis - ATCC 25285; assay: MIC microbroth dilution (CLSI), extra control strain; format: cell-based; design: unit not given here; details: B. fragilis ATCC 25285; SBB
[10] = test system: Methicillin resistant Staphylococcus aureus (MRSA) strain ATCC 33591; details: for MIC MRSA: MRSA ATCC 33591
[11] = test system: Candida parapsilosis ATCC 22019; assay: MIC microbroth dilution (CLSI), extra control strain; format: cell-based; details: C. parapsilosis ATCC 22019; RPMI 1640
Description: Yeast and filamentous fungal MIC were performed in MOPS buffered RPMI 1640 medium (MOPS buffer obtained from Sigma Aldrich Ltd., RPMI 1640 obtained from Invitrogen Ltd, Paisley, Scotland). The yeast inocula were in the range 7.5×10^2-4×10^3 CFU/mL and the filamentous fungi approximately 8×10^3-1×10^5 CFU/mL

[12] = test system: Methicillin resistant Staphylococcus epidermidis (MRSE) strain ATCC 27626; details: for MIC MRSE: MRSE ATCC 27626
[13] = test system: Clostridium difficile - antibiotic-susceptible clinical isolate; assay: MIC microbroth dilution (CLSI); format: cell-based; design: unit not given beside the values; details: C. difficile
Description: Supplemented Brucella broth (SBB) was used for the anaerobic strains with an inoculum of approximately 10^6 CFU/mL. SBB is a broth consisting of 1% peptone, 0.5% ‘Lab-lemco’, 1% glucose and 0.5% sodium chloride supplemented with 5 […] vitamin K (both obtained from Sigma Aldrich Ltd.)

[14] = test system: Eggerthella lenta - ATCC 43055; assay: MIC microbroth dilution (CLSI), extra control strain; format: cell-based; design: unit not given here; details: SBB
[15] = test system: Staphylococcus aureus FDA486; assay: Murine skin infection model, topical treatment; format: in vivo; details: mice; cream or gel containing 2% (w/w); three treatments at three hourly intervals; biopsy three hours after last
Description: (§2) The skin of mice was infected with Staphylococcus aureus or Streptococcus pyogenes and subsequently given a total of three treatments at three hourly intervals. Three hours after the last treatment, skin biopsies were collected and the number of colony forming units (CFUs) present in the skin sample was determined. Results are shown in FIGS. 1 and 2, expressed as the number of colony forming units per mouse.
as §2, with “3, 4” for “1”, “5” for “2,”

[16] = test system: Streptococcus pyogenes CS301; assay: Murine skin infection model, topical treatment; format: in vivo; details: mice
Description: as §2
as §2, with “3, 4” for “1”, “5” for “2,”

[17] = Solubility in organic solvents; format: physicochemical; details: THF and chloroform
Description: Alternatively, both the compound of Formula (I) and the polymer may be dissolved in a single solvent, either prior to mixing, at the time or mixing or after mixing. Suitable solvents for this approach include THF and chloroform. It may be necessary to combine the compound of Formula (I) with the solvent, e.g. THF, for a long time, e.g. at least 4 hours, preferably at least 12 hours, maybe 1 or more days, possibly up to 7 or 14 days.
The Resomer RG502 bioresorbable polymer material and AMC-109 were separately dissolved in THF in such a manner that amount of AMC-109 compared to the bioresorbable polymer in the final painting solution was 5%. The dissolution of AMC-109 in THF takes several hours.
The Resomer L2065 bioresorbable polymer material and AMC-109 were separately dissolved in dichloromethane and chloroform, respectively. The ratio between AMC-109 and L2065 was the same as above.

[18] = test system: S. pyogenes; details: Table 5
[19] = test system: C. albicans; details: Table 5
[20] = test system: P. aeruginosa; details: Table 5
[21] = test system: E. coli; details: Table 5

With `N=C(N)NCCCC(N)C(=O)NC(Cc1ccc(-c2ccc3ccccc3c2)cc1)C(=O)NC(CCCNC(=N)N)C(=O)NCCc1ccccc1` (stereo not shown) [Compound 1] the “MIC S. aureus” value [1] was 4 µM (≈ 2.83 µg/mL), the “MIC (control strain)” value [2] was 32 and the MIC [3] was 16. The MIC [4] was 16, the MIC [5] was 32 and the MIC [6] was 32. For the same compound, the MIC [7] was 8, the MIC [8] was 4 and the “MIC (control strain)” value [9] was 64. The “MIC MRSA” value [10] was under 3 µM, the “MIC (control strain)” value [11] was 4 and the “MIC MRSE” value [12] was under 3 µM. The MIC [13] was 32 and the “MIC (control strain)” value [14] was 16.

In the case of `CC(C)(C)c1cc(C(C)(C)C)c2[nH]c(C(C)(C)C)c(CC(NC(=O)C(N)CCCNC(=N)N)C(=O)NC(CCCNC(=N)N)C(=O)NCCc3ccccc3)c2c1` (stereo not drawn) [Compound 2, Arg-Tbt-Arg-NHCH2CH2Ph], the “MIC (control strain)” value [2] is reported as 4, the MIC [3] is reported as 8 and the MIC [4] is reported as 8. For the same compound, the MIC [5] was 8, the MIC [6] was 16 and the MIC [7] was 8. The MIC [8] was 4, the “number of CFUs in skin biopsy vs placebo” value [15] was “the number of CFUs was reduced” and the “number of CFUs in skin biopsy vs placebo gel and bactroban” value ([16]; 1% or 2% gel, three treatments at three hourly intervals) was “more effective at reducing the number of CFUs than the placebo gel or the bactroban”. For the same compound, the “number of CFUs in skin biopsy, 2% gel compared with 1% gel” value ([16]; 2% gel vs 1% gel) was “more effective than the gel containing only 1% of compound 2”, the “MIC (control strain)” value [9] was 64 and the “MIC (control strain)” value [11] was 8. The solubility [17] was “soluble in THF and chloroform”, the MIC [13] was 16 and the “MIC (control strain)” value [14] was 32.

In the case of `N=C(N)NCCC[C@H](NC(=O)[C@H](Cc1c[nH]c2ccccc12)NC(=O)[C@@H](N)CCCNC(=N)N)C(=O)NCCc1ccccc1` [Compound 6, reference compound] (H-Arg-Trp-Arg-NHPhenethyl; N-terminus assumed), the “MIC S. aureus” value [1] is reported as 145 µM (≈ 89.9 µg/mL), the “MIC MRSA” value [10] is reported as 97 µM (≈ 60.1 µg/mL) and the “MIC MRSE” value [12] is reported as 81 µM (≈ 50.2 µg/mL).

In the case of `CCCCNC(=O)[C@H](CCCNC(=N)N)NC(=O)[C@H](Cc1c(C(C)(C)C)[nH]c2c(C(C)(C)C)cc(C(C)(C)C)cc12)NC(=O)[C@@H](N)CCCNC(=N)N` [Compound 9], the “S. pyogenes (MIC)” value [18] is reported as 2 µg/mL, the “S. aureus (MIC)” value ([1]; ATCC 25923) is reported as 2 µg/mL and the “MRSA (MIC)” value ([10]; ATCC 33591) is reported as 3 µg/mL. For the same compound, the “MRSE (MIC)” value ([12]; ATCC 27626) was under 2 µg/mL and the “C. albicans (MIC)” value [19] was 10 µg/mL.

In the case of `CCCNC(=O)[C@H](CCCNC(=N)N)NC(=O)[C@H](Cc1c(C(C)(C)C)[nH]c2c(C(C)(C)C)cc(C(C)(C)C)cc12)NC(=O)[C@@H](N)CCCNC(=N)N` [Compound 10], the “S. pyogenes (MIC)” value [18] is reported as 2 µg/mL, the “S. aureus (MIC)” value ([1]; ATCC 25923) is reported as 2 µg/mL and the “MRSA (MIC)” value ([10]; ATCC 33591) is reported as 3 µg/mL. For the same compound, the “MRSE (MIC)” value ([12]; ATCC 27626) was under 2 µg/mL and the “C. albicans (MIC)” value [19] was 10 µg/mL.

For `CCCCCCCCCCCCCCCCNC(=O)[C@H](CCCNC(=N)N)NC(=O)[C@H](Cc1c(C(C)(C)C)[nH]c2c(C(C)(C)C)cc(C(C)(C)C)cc12)NC(=O)[C@@H](N)CCCNC(=N)N` [Compound 11], the “S. pyogenes (MIC)” value [18] was 6 µg/mL, the “S. aureus (MIC)” value ([1]; Table 5, strain ATCC 25923) was 5 µg/mL and the “P. aeruginosa (MIC)” value [20] was over 100 µg/mL. For the same compound, the “MRSA (MIC)” value ([10]; Table 5, strain ATCC 33591) was 4 µg/mL, the “E. coli (MIC)” value [21] was over 100 µg/mL and the “MRSE (MIC)” value ([12]; Table 5, strain ATCC 27626) was 4 µg/mL. For the same compound, the “C. albicans (MIC)” value [19] was over 100 µg/mL.

With `CC(C)CNC(=O)[C@H](CCCNC(=N)N)NC(=O)[C@H](Cc1c(C(C)(C)C)[nH]c2c(C(C)(C)C)cc(C(C)(C)C)cc12)NC(=O)[C@@H](N)CCCNC(=N)N` [Compound 12] the “S. pyogenes (MIC)” value [18] was 2 µg/mL, the “S. aureus (MIC)” value ([1]; ATCC 25923) was under 2 µg/mL and the “MRSA (MIC)” value ([10]; ATCC 33591) was 3 µg/mL. For the same compound, the “MRSE (MIC)” value ([12]; ATCC 27626) was 2 µg/mL and the “C. albicans (MIC)” value [19] was 10 µg/mL.

With `CC(C)(C)c1cc(C(C)(C)C)c2[nH]c(C(C)(C)C)c(C[C@H](NC(=O)[C@@H](N)CCCNC(=N)N)C(=O)N[C@@H](CCCNC(=N)N)C(=O)NC3CCCCC3)c2c1` [Compound 13] the “S. pyogenes (MIC)” value [18] was under 2 µg/mL, the “S. aureus (MIC)” value ([1]; ATCC 25923) was under 2 µg/mL and the “MRSA (MIC)” value ([10]; ATCC 33591) was 2 µg/mL. The “MRSE (MIC)” value ([12]; ATCC 27626) was 2 µg/mL and the “C. albicans (MIC)” value [19] was 10 µg/mL.

With `CC(C)(C)c1cc(C(C)(C)C)c2[nH]c(C(C)(C)C)c(C[C@H](NC(=O)[C@@H](N)CCCNC(=N)N)C(=O)N[C@@H](CCCNC(=N)N)C(=O)NC3CCCC3)c2c1` [Compound 14] the “S. pyogenes (MIC)” value [18] was 2 µg/mL, the “S. aureus (MIC)” value ([1]; ATCC 25923) was under 2 µg/mL and the “MRSA (MIC)” value ([10]; ATCC 33591) was over 15 µg/mL. The “MRSE (MIC)” value ([12]; ATCC 27626) was under 2 µg/mL and the “C. albicans (MIC)” value [19] was 10 µg/mL.
